From paper PMC5358997, “Fixed-dose combination orally disintegrating tablets to treat cardiovascular disease: formulation, in vitro characterization and physiologically based pharmacokinetic modeling to assess bioavailability” (Drug Design, Development and Therapy, 2017)

Experiments:
[1] = Dissolution testing of ODTs in biorelevant media (USP 2 paddle), f1/f2 comparison; type: physicochemical; conditions: for Similarity factor f2 / Difference factor f1: single (reference) vs FDC (test) dissolution profile; for Similarity factor f2: similar if above 50; for Difference factor f1: similar if below 15; for Results of f1 and f2 testing: similar if f1 below 15 and f2 above 50; for >85% dissolution ≤15 min: single and FDC formulations
Procedure: API dissolution from ODTs in 900 mL biorelevant media was tested in both FaSSIF and FeSSIF at pH 6.5 and 5, respectively, and maintained at 37°C. An ERWEKA DT 600 USP 2 paddle apparatus (Heusenstamm, Germany) was used at a paddle speed of 50 rpm.[27] A total of 5 mL of sample was taken over 2 h, replacing with 5 mL fresh media to simulate sink conditions. API dissolution was measured using HPLC and corrected for percent dose dissolved.
Differences between dissolution profiles of APIs in single dose (reference) and combination (test) were assessed using f1 and f2 difference and similarity factor testing using the equations:[34] f1={[∑t=1n|Rt−Tt|]/[∑t=1nRt]}*100f2=50*log{[1+(1/n)∑t=1n(Rt−Tt)^2]^−0.5*100} where Rt and Tt are the percent drug-dissolved value at each time point for the reference and test product, respectively, and n is the number of time points.

LDL-C = conditions: hypercholesterolemic patients; cited from earlier work
in vitro = conditions: human; for efflux ratio at 2 h: Caco-2, pH 7.4, Efflux ratio; for Papp A→B at 2 h: Caco-2, pH 7.4, Papp A–B; for Papp B→A at 2 h: Caco-2, pH 7.4, Papp B–A
Procedure: Media were changed every 2–3 days and transwells cultured at 37°C, 5% CO2 for 21 days, after which transport studies were performed. […] Samples of 100 μL were removed from the A side and 200 μL from the B side at time points over 2 h, replacing with fresh prewarmed media (37°C) to mimic sink conditions. […] Cultures were maintained at 37°C and 5% CO2 throughout the experiment.

[2] = amlodipine (20 μg/mL) and atorvastatin (40 μg/mL) in combination, pH 7.4, n=3, mean ± SD
[3] = drug alone (amlodipine 20 μg/mL, atorvastatin 40 μg/mL), pH 7.4 both compartments, n=3, mean ± SD

SMILES | Similarity factor f2 ([1]; FaSSIF) | Difference factor f1 ([1]; FaSSIF) | Results of f1 and f2 testing ([1]; FaSSIF) | Similarity factor f2 ([1]; FeSSIF) | Difference factor f1 ([1]; FeSSIF) | Results of f1 and f2 testing ([1]; FeSSIF) | Reduction of LDL-C (LDL-C) | Dissolution within 15 min ([1]; FaSSIF, both single and FDC ODT) | >85% dissolution ≤15 min ([1]; FaSSIF) | Dissolution within 15 min ([1]; FeSSIF, either single or FDC ODT) [%] | >85% dissolution ≤15 min ([1]; FeSSIF) | efflux ratio at 2 h (in vitro; amlodipine and atorvastatin in combination, pH 7.4) | efflux ratio at 2 h (in vitro; drug alone, pH 7.4 both compartments) | Papp A→B at 2 h (in vitro; [2]) [×10⁻⁶ cm/s] | Papp A→B at 2 h (in vitro; [3]) [×10⁻⁶ cm/s] | Papp B→A at 2 h (in vitro; [2]) [×10⁻⁶ cm/s] | Papp B→A at 2 h (in vitro; [3]) [×10⁻⁶ cm/s]
CC(C)c1c(C(=O)Nc2ccccc2)c(-c2ccccc2)c(-c2ccc(F)cc2)n1CC[C@@H](O)C[C@@H](O)CC(=O)O [Atorvastatin, atorvastatin calcium] | 53.81 | 14.16 | Pass | 54.59 | 13.24 | Pass | 41%–61% |  |  |  |  |  |  |  |  |  | 
CCOC(=O)C1=C(COCCN)NC(C)=C(C(=O)OC)C1c1ccccc1Cl (centres unmarked) [Amlodipine, Amlodipine besylate] | 70.80 | 5.08 | Pass | 45.40 | 15.92 | Fail |  | exceeded 85% | Yes | ≤ 85 | No | 0.96 | 1.14 | 5.4 ± 0.48 | 8.34 ± 0.32 | 5.18 ± 0.29 | 9.51 ± 1.7
